Converted amounts (≈) assume the structure as drawn.
Tests used:
p38 MAP-kinase = p38 MAP-kinase (Homo sapiens, UniProt Q16539); test: p38 MAP-kinase enzymatic assay (phosphorylation of GST-tagged ATF2, chemoluminescence); assay type: biochemical; details: inhibitor concentration 1 μM; activated p38 MAP-kinase 1 nM; ATP 100 μM; read-out: p38 (% Inh @ 1 μM)
Procedure, shortened: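 Activated p38 MAP-kinase (1 nM) preincubated 4 h at ambient temperature with 1 μM compound in HEPES pH 7, MgCl2, DTT, TWEEN20, then reacted 1 h with 10 nM GST-ATF2 and 100 μM ATP. Phospho-ATF2 detected by AlphaScreen-type bead luminescence; percent inhibition at 1 μM versus uninhibited and kinase-free controls.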

cytochrome P450 2C9 = cytochrome P450 2C9 (Homo sapiens, UniProt P11712); test: Determining the cyp2C9 activity (O-demethylation of [O-methyl-14C]-naproxen); assay type: in vitro ADME; details: human recombinant cytochrome P450 2C9; 37° C.; <0.4 μM when inhibition >50% at lowest concentration; read-out: CYP 2C9 IC50
Procedure, shortened: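 Recombinant CYP2C9 (40 pmol/ml) with 80 μM [O-methyl-14C]-naproxen in 0.1 M Tris, 5 mM MgCl2; test compound at 50, 10, 2 and 0.4 μM in duplicate. Started with 1 mM NADPH, stopped after 15 min with TCA; 14C-formaldehyde separated by solid-phase extraction and counted by scintillation. IC50 from least-squares fit.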

[1] = Determining the solubility (saturated solution in McIlvaine buffer pH 7.4, UV spectroscopy); assay type: physicochemical; details: pH 7.4, aqueous buffer, thermodynamic from solid, shaken 2 hours, 0.75 mg solid in 0.75 ml
Procedure, shortened: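 Excess solid (0.75 mg per 0.75 ml) shaken 2 h in McIlvaine buffer pH 7.4, then filtered through 0.45 μm PTFE membrane with first drops discarded. Dissolved amount measured by UV spectroscopy.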

Chain of p38 MAP-kinase (Q16539 whole entry): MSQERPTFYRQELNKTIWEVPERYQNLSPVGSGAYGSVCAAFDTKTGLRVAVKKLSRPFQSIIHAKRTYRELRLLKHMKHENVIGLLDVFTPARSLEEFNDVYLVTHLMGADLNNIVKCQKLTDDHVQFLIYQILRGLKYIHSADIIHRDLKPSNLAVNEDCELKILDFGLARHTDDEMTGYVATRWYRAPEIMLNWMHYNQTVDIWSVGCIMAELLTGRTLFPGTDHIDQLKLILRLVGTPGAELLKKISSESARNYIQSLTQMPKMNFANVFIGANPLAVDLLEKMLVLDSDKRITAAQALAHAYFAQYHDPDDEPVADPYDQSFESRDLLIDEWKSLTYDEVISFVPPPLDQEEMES
Chain of cytochrome P450 2C9 (P11712 whole entry): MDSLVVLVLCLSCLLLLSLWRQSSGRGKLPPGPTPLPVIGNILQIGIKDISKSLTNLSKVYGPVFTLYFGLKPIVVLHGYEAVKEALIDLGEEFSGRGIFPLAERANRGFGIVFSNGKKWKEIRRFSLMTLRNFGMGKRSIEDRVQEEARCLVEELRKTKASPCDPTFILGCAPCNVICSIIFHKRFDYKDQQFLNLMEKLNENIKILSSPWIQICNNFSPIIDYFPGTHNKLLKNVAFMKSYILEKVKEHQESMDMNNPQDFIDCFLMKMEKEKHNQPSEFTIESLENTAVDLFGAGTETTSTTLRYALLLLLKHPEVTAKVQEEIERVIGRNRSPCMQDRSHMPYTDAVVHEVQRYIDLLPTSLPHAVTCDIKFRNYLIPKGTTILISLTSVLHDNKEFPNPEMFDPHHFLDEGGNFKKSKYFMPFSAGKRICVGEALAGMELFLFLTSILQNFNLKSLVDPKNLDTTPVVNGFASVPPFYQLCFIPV

Structure (SMILES)	inhibition at 1 µM (p38 MAP-kinase)	IC50 (cytochrome P450 2C9)	solubility at 2 h [1]
COc1c(NC(=O)c2cc3cccc(CN4CCCN(C(=O)C5CCN(C)CC5)CC4)c3n2C)cc(C(C)(C)C)cc1NS(C)(=O)=O [8(1), 1-methyl-7-[4-(1-methyl-piperidine-4-carbonyl)-[1,4]diazepan-1-ylmethyl]-1H-indole-2-carboxylic acid-(5-tert-butyl-3-methanesulphonylamino-2-methoxy-phenyl)-amide]	98.1%	6.48 µM	0.12 mg/mL (≈ 180 µM)
CN1CCC[C@H]1C(=O)N1CCN(Cc2cccc3cc(C(=O)Nc4cccc(N5CCOCC5)c4)n(C)c23)CC1 [1(25), (S)-1-methyl-7-[4-(1-methyl-pyrrolidine-2-carbonyl)-piperazin-1-ylmethyl]-1H-indole-2-carboxylic acid-(3-morpholin-4-yl-phenyl)-amide]	35.4%	7.91 µM	0.048 mg/mL (≈ 88.1 µM)
COc1c(NC(=O)c2cc3cccc(CN4CCN(C(=O)C5CNC5)CC4)c3n2C)cc(C(C)(C)C)cc1NS(C)(=O)=O [Example 3, 7-[4-(azetidine-3-carbonyl)-piperazin-1-ylmethyl]-1-methyl-1H-indole-2-carboxylic acid (5-tert-butyl-3-methanesulphonylamino-2-methoxy-phenyl)-amide]	99%	1.26 µM	0.085 mg/mL (≈ 139 µM)
COc1c(NC(=O)c2cc3cccc(CN4CCN(C(=O)[C@@H]5CCCN5C)CC4)c3n2C)cc(C(C)(C)C)cc1S(C)(=O)=O [11(4), (S)-1-methyl-7-[4-(1-methyl-pyrrolidine-2-carbonyl)-piperazin-1-ylmethyl]-1H-indole-2-carboxylic acid-(5-tert-butyl-3-methanesulphonyl-2-methoxy-phenyl)-amide]	99.5%	0.46 µM	0.043 mg/mL (≈ 68.9 µM)
COc1c(NC(=O)c2cc3cccc(CN4CCN(C(=O)N5CC[C@@H](N(C)C)C5)CC4)c3n2C)cc(C(C)(C)C)cc1NS(C)(=O)=O [Example 2, (R)-7-[4-(3-dimethylamino-pyrrolidine-1-carbonyl)-piperazin-1-ylmethyl]-1-methyl-1H-indole-2-carboxylic acid(5-tert-butyl-3-methanesulohonylamino-2-methoxy-phenyl)-amide]	99.1%	1.29 µM	0.01 mg/mL (≈ 15 µM)
COc1c(NC(=O)c2cc3cccc(CN4CCN(C(=O)[C@@H]5CCCN5C)CC4)c3n2C)cc(C(C)(C)C)cc1NS(=O)(=O)C1CC1 [13(1), (S)-1-methyl-7-[4-(1-methyl-pyrrolidine-2-carbonyl)-piperazin-1-ylmethyl]-1H-indole-2-carboxylic acid-(5-tert-butyl-3-cyclopropanesulphonylamino-2-methoxy-phenyl)-amide]	99.3%	0.67 µM	0.012 mg/mL (≈ 18 µM)
COc1c(NC(=O)c2cc3cccc(CN4CCN(C(=O)CN5CCN(C(C)C)CC5)CC4)c3n2C)cc(C(C)(C)C)cc1NS(C)(=O)=O [1(14), 7-{4-[2-(4-isopropyl-piperazin-1-yl)-acetyl]-piperazin-1-ylmethyl}-1-methyl-1H-indole-2-carboxylic acid-(5-tert-butyl-3-methanesulphonylamino-2-methoxy-phenyl)-amide]	99.1%	0.63 µM	0.12 mg/mL (≈ 172 µM)
COc1c(NC(=O)c2cc3cccc(CN4CCN(C(=O)[C@H]5C[C@@H](O)CN5C)CC4)c3n2C)cc(C(C)(C)C)cc1NS(C)(=O)=O [1(10), 7-[4-((2R,4R)-4-hydroxy-1-methyl-pyrrolidine-2-carbonyl)-piperazin-1-ylmethyl]-1-methyl-1H-indole-2-carboxylic acid(5-tert-butyl-3-methanesulphonylamino-2-methoxy-phenyl)-amide]	99.6%	0.41 µM	0.043 mg/mL (≈ 65.7 µM)
COc1c(NC(=O)c2cc3cccc(CN4CCC(C(=O)N5CCN(C)CC5)CC4)c3n2C)cc(C(C)(C)C)cc1NS(C)(=O)=O [1(22), 1-methyl-7-[4-(4-methyl-piperazine-1-carbonyl)-piperidin-1-ylmethyl]-1H-indole-2-carboxylic acid-(5-tert-butyl-3-methanesulphonylamino-2-methoxy-phenyl)-amide]	99.1%	1.54 µM	0.042 mg/mL (≈ 64.3 µM)
CCN(CC)C1CCN(Cc2cc(C(C)(C)C)cc(NC(=O)c3cc4cccc(CN5CCN(C(=O)[C@@H]6CCCN6C)CC5)c4n3C)c2OC)CC1 [9(6), (S)-1-methyl-7-[4-(1-methyl-pyrrolidine-2-carbonyl)-piperazin-1-ylmethyl]-1H-indole-2-carboxylic acid-[5-tert-butyl-3-(4-diethylamino-piperidin-1-ylmethyl)-2-methoxy-phenyl]-amide]	97.7%	10.4 µM	0.47 mg/mL (≈ 658 µM)
COc1c(NC(=O)c2cc3cccc(CN4CCN(C(=O)CN5CC[C@H](O)C5)CC4)c3n2C)cc(C(C)(C)C)cc1NS(C)(=O)=O [1(15), (S)-7-{4-[2-(3-hydroxy-pyrrolidin-1-yl)-acetyl]-piperazin-1-ylmethyl}-1-methyl-1H-indole-2-carboxylic acid-(5-tert-butyl-3-methanesulphonylamino-2-methoxy-phenyl)-amide]	98.9%	1.21 µM	0.073 mg/mL (≈ 111 µM)
COc1c(CN2CCN(C)CC2)cc(C(C)(C)C)cc1NC(=O)c1cc2cccc(CN3CCN(C(=O)[C@@H]4CCCN4C)CC3)c2n1C [Example 9, (S)-1-methyl-7-[4-(1-methyl-pyrrolidine-2-carbonyl)-piperazin-1-ylmethyl]-1H-indole-2-carboxylic acid-[5-tert-butyl-2-methoxy-3-(4-methyl-piperazin-1-ylmethyl)-phenyl]-amide]	98.8%	11 µM	> 1 mg/mL
COc1c(NC(=O)c2cc3cccc(CC4CCCN(C(=O)[C@@H]5CCCN5C)CC4)c3n2C)cc(C(C)(C)C)cc1NS(C)(=O)=O (stereo partly drawn) [1(18), 1-methyl-7-[1-((2S)-1-methyl-pyrrolidine-2-carbonyl)-azepan-4-ylmethyl]-1H-indole-2-carboxylic acid-(5-tert-butyl-3-methanesulphonylamino-2-methoxy-phenyl)-amide]	98%	0.84 µM	0.08 mg/mL (≈ 123 µM)

Source: patent US8686022B2, “7-(piperazine-1-ymethyl)-1H-indole-2-carboxylic acid (phenyl)-amide derivatives and allied compounds as p38 MAP kinase inhibitors for the treatment of respiratory diseases” (Boehringer Ingelheim International GmbH, priority 2008, dated 2014)
